One experiment has as its system Candida albicans. Put plainly: Static tests: minimal inhibitory (MIC) and minimal fungicidal concentration (MFC) on Candida albicans strains. It counts as cell-based. As to the method:
In Vitro Tests: Determination of Minimal Fungicidal Concentration (MFC) on Different Strains of Candida albicans
The experiment was carried out with several strains of Candida albicans having different susceptibilities isolated in the hospital environment from the mouth, vagina and digestive tract. […] An antifungal pharmaceutical composition was prepared by mixing fluconazole at different concentrations with carvacrol at a sub-inhibitory concentration of 0.3 g per liter of solution or excipient. This pharmaceutical composition according to the invention was named FLUC-P for potentiated fluconazole. In each case, antifungal activity was determined either with fluconazole alone, or with carvacrol alone, or with the composition of the invention.
Table 1 gives the results of static tests to determine the minimal fungicidal concentration (MFC) in μg/ml.
(§1) The experiment was carried out with several strains of Candida albicans having different susceptibilities isolated in the hospital environment. The antifungal agent used was voriconazole, an azole derivative and one of the most recent antifungals on the market. An antifungal pharmaceutical composition according to the invention was prepared by mixing voriconazole at different concentrations with carvacrol at a sub-inhibitory concentration of 0.3 g per liter of solution or excipient. This pharmaceutical composition according to the invention was named Vorico-P for potentiated voriconazole. In each case, antifungal activity was determined either with voriconazole alone, or with carvacrol alone, or with the composition of the invention.
Table 2 gives the results of static tests to determine the minimal inhibitory concentration (MIC) and the minimal fungicidal concentration (MFC) in μg/ml.
as §1, with “caspofungin, from the echinocandin family, which is” for “voriconazole, an azole derivative and”, “newest” for “most recent”, “caspofungin” for “voriconazole”, “Caspo-P” for “Vorico-P”, “caspofungin.” for “voriconazole.”
Table 3 gives the results of static tests to determine the minimal inhibitory concentration (MIC) and the minimal fungicidal concentration (MFC) in μg/ml.
The experiment was carried out with several strains of Candida albicans having different susceptibilities isolated in the hospital environment. The antifungal agent used was 5-fluorocytosine, from the pyrimidine group, which is one of the oldest antifungal agents. An antifungal pharmaceutical composition according to the invention was prepared by mixing 5-fluorocytosine at different concentrations with eugenol at a sub-inhibitory concentration of 0.5 g per liter of solution or excipient. This pharmaceutical composition according to the invention was named Fluoro-P for potentiated 5-fluorocytosine. In each case, antifungal activity was determined either with 5-fluorocytosine alone, or with eugenol alone, or with the composition of the invention.
Table 4 gives the results of static tests to determine the minimal inhibitory concentration (MIC) and the minimal fungicidal concentration (MFC) in μg/ml.

In experiment [1] the test system is Candida albicans strain with moderate resistance to fluconazole. The format is in vivo, mice. The following applies: fluconazole alone 4 mg/kg/day, carvacrol alone 30 mg/kg/day; for survival: mice, gavage from 24 h post-infection, seven days, composition fluconazole 2 mg/kg + carvacrol 30 mg/kg, FIG. 2; for Candida albicans loads in kidney, lung and bone marrow: organs of mice which died during the experiment. From the text:
FIG. 2 presents the results of in vivo tests in a systemic candidiasis model in experimentally infected mice either untreated, or treated with fluconazole alone, treated with carvacrol alone, or treated with a pharmaceutical composition according to the invention comprising fluconazole and carvacrol.
Groups of 15 mice were experimentally infected by intravenous injection of 10,000,000 cells (colony-forming units) of a Candida albicans strain with moderate resistance to fluconazole.
The first group was composed of control mice which were infected and untreated.
The second group was composed of infected mice treated by gavage, 24 h post-infection, with fluconazole alone at a dose of 4 mg/kg of body weight/day.
The third group was composed of infected mice treated by gavage, 24 h post-infection, with carvacrol alone at a dose of 30 mg/kg of body weight/day.
The fourth group was composed of infected mice treated by gavage, 24 h post-infection, with fluconazole 2 mg/kg of body weight and with carvacrol 30 mg/kg of body weight.
The duration of treatment was seven days for surviving animals. The survival rate was measured over time. […] All the other mice died between the second and seventh day post-infection.

The next experiment has as its system Aspergillus niger. The experiment in a line: Static tests: MIC and MFC on Aspergillus niger strains. It counts as cell-based. The protocol: The experiment was carried out with several strains of Aspergillus niger which were not susceptible to fluconazole. The antifungal agent used was fluconazole, an azole derivative and one of the most widely used antifungals. […] Aspergillosis, caused by microorganisms from the family Aspergillus sp, represents the most common and most difficult-to-treat infection. An antifungal pharmaceutical composition according to the invention was prepared by mixing fluconazole at different concentrations with carvacrol at a sub-inhibitory concentration of 0.25 g per liter of solution or excipient. This pharmaceutical composition according to the invention was named Fluc-P for potentiated fluconazole. In each case, antifungal activity was determined either with fluconazole alone, or with carvacrol alone, or with the composition of the invention.
Table 5 gives the results of static tests to determine the minimal inhibitory concentration (MIC) and the minimal fungicidal concentration (MFC) in μg/ml.

Read-outs that look alike come from different tables or passages of the source.

The source of these data is US20080214568A1, “Pharmaceutical Combination Comprising an Antifungal Agent and an Active Substance Selected From Carveol, Eugenol, Thymol, Borneol, Carvacrol, and Alpha- and Beta-Ionones” (ADVANCED SCIENTIFIC DEVELOPMENTS, priority 2005, published 2008).

For the compound `C[C@@H](c1ncncc1F)[C@](O)(Cn1cncn1)c1ccc(F)cc1F` [Voriconazole, voriconazole], the MIC in the experiment with Candida albicans (Candida albicans, Example 2, resistant strain, voriconazole alone) is 10 µg/mL; with Candida albicans (Candida albicans, Example 2, susceptible strain, voriconazole alone) it was < 0.05 µg/mL. In the experiment with Candida albicans (resistant strains, with carvacrol 0.3 mg/ml), the “voriconazole concentration producing fungicidal activity versus fungistatic concentration of voriconazole alone” value is given as “at least ten times lower”.

Consider `Nc1nc(=O)[nH]cc1F` [5-fluorocytosine], for which the MIC with Candida albicans (Candida albicans, Example 4, resistant strain, 5-fluorocytosine alone) was 25 µg/mL; with Candida albicans (Candida albicans, Example 4, susceptible strain, 5-fluorocytosine alone) it was 2.5 µg/mL. Further, in the experiment with Candida albicans (resistant strains, with eugenol 0.5 mg/ml), the “5-fluorocytosine concentration producing fungicidal activity versus fungistatic concentration of 5-fluorocytosine alone” value was “five times lower”.

On to `C=CCc1ccc(O)c(OC)c1` [Eugenol, eugenol], for which the MFC worked out at 2000 µg/mL in the experiment on Candida albicans (Candida albicans, Example 4, resistant strain, eugenol alone, read-out: MFC) and 2000 µg/mL in the experiment on Candida albicans (Candida albicans, Example 4, susceptible strain, eugenol alone, read-out: MFC).

For the compound `Cc1ccc(C(C)C)cc1O` [Carvacrol, carvacrol], the survival result in experiment [1] is given as “died during the experiment”. Further, the “Candida albicans loads in kidney, lung and bone marrow” value in experiment [1] is given as “high loads”. In addition, the MFC in the experiment on Aspergillus niger (Aspergillus niger) stood at 500 µg/mL; with Candida albicans (Candida albicans) it was 1000 µg/mL; in the experiment on Candida albicans (Example 1, highly resistant strain, exponential growth phase, substance alone), 1000 µg/mL; with Candida albicans (Example 1, moderately resistant strain, exponential growth phase, substance alone) it was 1000 µg/mL; in the experiment on Candida albicans (Example 2, resistant strain, carvacrol alone) it was 1000 µg/mL; in the experiment with Candida albicans (Example 2, susceptible strain, carvacrol alone), 1000 µg/mL. For the same compound, the minimal fungicidal concentration (MFC) with Candida albicans (Example 3, resistant strain, carvacrol alone) stood at 1000 µg/mL; in the experiment on Candida albicans (Example 3, susceptible strain, carvacrol alone), 1000 µg/mL.

Turning to `OC(Cn1cncn1)(Cn1cncn1)c1ccc(F)cc1F` [Fluconazole, fluconazole], in experiment [1], the survival entry was “died during the experiment”. Also, the “Candida albicans loads in kidney, lung and bone marrow” value in experiment [1] is listed as “high loads”. In addition, the MIC with Aspergillus niger (Example 5, 12 different strains of Aspergillus niger, fluconazole alone) is > 1000 µg/mL. In addition, the MFC in the experiment on Candida albicans (Candida albicans, Example 1, highly resistant strain, exponential growth phase, substance alone, read-out: MFC) was > 300 µg/mL; in the experiment on Candida albicans (Candida albicans, Example 1, moderately resistant strain, exponential growth phase, substance alone, read-out: MFC), 150 µg/mL; in the experiment on Candida albicans (Candida albicans, Example 1, susceptible strain, exponential growth phase, substance alone, read-out: MFC), 0.5 µg/mL.

With `CC[C@H](C)C[C@H](C)CCCCCCCCC(=O)N[C@H]1C[C@@H](O)[C@@H](NCCN)NC(=O)[C@@H]2[C@@H](O)CCN2C(=O)[C@H]([C@H](O)CCN)NC(=O)[C@H]([C@H](O)[C@@H](O)c2ccc(O)cc2)NC(=O)[C@@H]2C[C@@H](O)CN2C(=O)[C@H]([C@@H](C)O)NC1=O` [Caspofungin, caspofungin], the MIC with Candida albicans (Candida albicans, Example 3, resistant strain, caspofungin alone) was 3 µg/mL; with Candida albicans (Candida albicans, Example 3, susceptible strain, caspofungin alone), < 0.05 µg/mL. Further, the “caspofungin concentration producing fungicidal activity versus fungistatic concentration of caspofungin alone” value with Candida albicans (with carvacrol 0.3 mg/ml) is listed as “at least six times lower”.

By MIC is commonly meant the lowest concentration that inhibits growth of the organism. For orientation: MFC means the smallest concentration meeting the test's criterion for killing the fungus.
